Data reported in patent publication EP0642343B1, “Acridine carboxamides for the treatment of cancer” (XENOVA LIMITED, priority 1992, dated 1993).
pIC50: −log10 of the molar value. Read-outs that look alike come from different tables or passages of the source.

Tests used:
[1] = tested on: a variety of human and mouse cell lines and in a panel of 60 human cell lines; assay: Cytotoxicity under continuous drug exposure (growth inhibition); assay type: cell-based; details: continuous drug exposure over approx. 5 cell doubling times; range over the cell lines
Procedure: The latter value compared with 2 µM for the 4-pyridyl-quinoline analogue, 0.76 µM for amsacrine, 0.1 µM for the amsacrine analogue 4'-(9-[4-[N-methylcarboxamido]-5-methyl]-acridinylamino)-methanesulphon-m-anisidide ("CI-921") and 81 µM for etoposide.

[2] = tested on: P388 murine leukaemia (P/ACTD); assay: Sensitivity of multidrug resistant P388 subline in vitro; assay type: cell-based; details: P-glycoprotein positive multidrug resistant subline
Procedure: (§1) A multidrug resistant subline of P388 murine leukaemia (P/ACTD) was tested for sensitivity to DACA. This line was cross-resistant to actinomycin D, doxo-rubicin, mitoxantrone, etoposide and vincristine. Its resistance to vincristine was overcome by the presence of verapamil (10 µM). It stained for the presence of P-glycoprotein, consistent with the presence of transport-mediated multidrug resistance.

[3] = tested on: primary human melanoma cultures; assay: cells; details: for pIC50: Homo sapiens
Procedure: Acridine carboxamide hydrochloride, synthesised in the Cancer Research Laboratory (Atwell G.J., et al., J.Med. Chem. 1987, 30, 664-669), and amsacrine isethionate, obtained from the Parke-Davis Division of the Warner-Lambert Company, Ann Arbor, USA, were dissolved in 50% v/v aqueous ethanol to make stock solutions of 2-5 mmol/l and stored at -20°C. Other cytotoxic drugs were available either from the NCI repository (Monks A., et al., J. Natl. Cancer Inst. 1991, 83, 757-766) or were obtained as described in Marshall E.S., et al., J. Natl. Cancer Inst. 1992, 84, 341-344 and Finlay, et al., Eur. J. Cancer din. Oncol. 1986, 22, 655-662. Cell lines were from the NCI repository except for MM-96 (Dr. R. Whitehead, Ludwig Institute, Melbourne, Australia), FME (Dr. K.M. Tveit, Norwegian Radium Hospital, Oslo, Norway) and Jurkat normal and multidrug-resistant lines (Dr. K. Snow and Dr. W. Judd, Department of Cellular and Molecular Biology, University of Auckland). Melanoma tissue was obtained from patients with pathologically confirmed metastatic and recurrent melanomas under Auckland Hospital Ethical Committee guidelines. Cells were released by digestion of tissue (at 50 mg.ml^-1) with collagenase (1 mg.ml^-1) and DNAase (50 µg.ml^-1) with continuous stirring at 37°C for 1 to 2 hours, and cultured as previously described (Marshall E.S., et al., J. Natl. Cancer Inst. 1992, 84, 341-344).
(§2) Tumour cell lines were cultured in 96-well plates. Growth of NCI cell lines was assessed using sulpho-rhodamine B staining (Skehan P., et al., J. Natl. Cancer Inst. 1990, 82, 1107-1112), that of the leukaemia lines with (4,5-dimethylthiazole-2-yl)-2,5-diphenyltetrazolium (MTT) staining (Mosmann T., J. Immun. Methods 1983, 65, 55-63) and that of the primary human tumour material by ^3H-thymidine incorporation (Marshall E.S., et al., J. Natl. Cancer Inst. 1992, 84, 341-344). Primary tumour material was cultured in 96-well plates in which the wells were coated with agarose to inhibit selectively the growth of normal cells. (Marshall E.S., et al., J. Natl. Cancer Inst. 1992, 84, 341-344). Primary cultures were incubated at 37°C in sealed perspex boxes containing a humidified atmosphere of 5% CO2 and 5% O2 in nitrogen for 7 days. 5-Methyl-[^3H]-thymidine (20 Ci.mmol^-1; 0.04 µCi per well), thymidine and 5-fluorodeoxyuridine (each at final concentrations of 0.5 µM) were added in medium to cultures (20 µl per well) 24 h before terminating the cultures. Cells were aspirated on to glass fibre filters using a multiple automated sample harvester (LKB Wallac OY Beta Harvester). The filter discs were washed for 15 seconds with water, dried, and the amount of tritium retained quantified by liquid scintillation.
(§3) IC50 values were defined as in Paull K.D., et al., J. Natl. Cancer Inst. 1989, 81:1088-1092, where growth, as indicated by staining or thymidine incorporation, corresponded to 50% of that of the control cultures. […] Variances of DELTA values were expressed as standard deviations in log10 units. Comparison of DELTA values was made using Pearson correlation coefficients. Resistance factors were defined as the ratios of IC50 values between the resistant line and the parent line. Statistical evaluation was performed either with NCI programmes, with RS/1 software (BBN Research Systems, Cambridge, MA, USA), or with Sigmaplot (Jandel Scientific, San Rafael, CA, USA).
DACA was also compared in a series of 12 primary melanoma cultures. Tissue was excised from human malignant melanomas and cultured using a modified 96-well assay system in which the cells were cultured on agarose and assayed for proliferation using the ^3H-thymidine incorporation assay as described in Marshall E.S., et al., J. Natl. Cancer Inst. 1992, 84, 341-344.

[4] = tested on: P388 murine leukaemia (P/ACTD); assay: Sensitivity of multidrug resistant P388 subline in vivo
Procedure: as §1

[5] = tested on: panel of cell lines encompassing a number of tumour types; assay: NCI cell line panel, growth inhibition by protein staining; assay type: cell-based; details: data provided by the National Cancer Institute
Procedure: as §2, §3

CEM-CCRF = assay: Growth inhibition of leukaemia line, continuous exposure, MTT staining; assay type: cell-based; details: Homo sapiens
Procedure: (§4) Tumour cell lines were cultured in 96-well plates. […] Primary cultures were incubated at 37°C in sealed perspex boxes containing a humidified atmosphere of 5% CO2 and 5% O2 in nitrogen for 7 days. 5-Methyl-[^3H]-thymidine (20 Ci.mmol^-1; 0.04 µCi per well), thymidine and 5-fluorodeoxyuridine (each at final concentrations of 0.5 µM) were added in medium to cultures (20 µl per well) 24 h before terminating the cultures.
(§5) 1989, 81:1088-1092, where growth, as indicated by staining or thymidine incorporation, corresponded to 50% of that of the control cultures.
(§6) The effect of DACA on the growth of cultured cells was assessed by continuous drug exposure. […] These values were similar to those of other human leukaemia cell lines, which ranged from 290 to 760 nM (CEM-CCRF, 410 nM; MOLT-4, 290 nM; Daudi, 400 nM; Raji, 370 nM, U937, 590 nM; HL-60, 620 nM; K-562, 760 nM). Four multidrug-resistant cell lines, developed from JL and JB1 by in vitro exposure to increasing concentrations of doxorubicin (LD and B1D) or amsacrine (LA and B1A) (Finlay G.J., et al., J. Natl. Cancer Inst. 1990, 82, 662-667, Snow K., et al., Br. J. Cancer 1991, 63, 17-28) were tested.

K-562 = assay: as above; assay type: cell-based; details: Homo sapiens, K562
Procedure: as §4, §5, §6

[6] = tested on: human Jurkat T cell leukaemia line, tetraploid (B1); assay: as above; assay type: cell-based; details: continuous drug exposure
Procedure: as §4, §5, §6

Daudi = assay: as above; assay type: cell-based; details: Homo sapiens
Procedure: as §4, §5, §6

With `CN(C)CCNC(=O)c1cccc2cc3ccccc3nc12` [DACA, N-[2-(dimethylamino)ethyl]acridine-4-carboxamide] the pIC50 [1] was 5.47 to 7.05, the “sensitivity of P/ACTD line” value [2] was “sensitive” and the pIC50 ([3]; read-out: IC50 values) was 5.82 to 6.70. The pIC50 ([3]; read-out: mean IC50) was 6.23, the “proportions of cells killed” value ([3]; human, primary melanoma cultures) was > 99% and the “sensitivity of P/ACTD line” value [4] was “sensitive”. The pIC50 [5] was 5.68, the pIC50 (CEM-CCRF) was 6.39 and the pIC50 (K-562) was 6.12. It also gave a pIC50 [6] of 6.42 and a pIC50 (Daudi) of 6.40.
